Source: patent US20150073159A1, “Solid State Forms Of Cabazitaxel And Processes For Preparation Thereof” (PLUS CHEMICALS SA, priority 2011, published 2015)

What was measured:
[1] = Hygroscopicity and stability test (exposure to controlled relative humidity; water content by Karl-Fischer, form by PXRD); assay type: physicochemical; details: for % water content: Karl-Fischer coulometric titration; for Conversion to other forms of Cabazitaxel (in words) / Hygroscopicity (in words): normal atmospheric humidity, 60%, 80% and 100% RH
Protocol: (§1) Powder X-ray Diffraction was performed on an X-Ray powder diffractometer: PanAlytical X'pert Pro; CuKα radiation (λ=1.5418 Å); X'Celerator detector with active length 2.122 degrees 2-theta; laboratory temperature 22-25° C.; zero background sample holders. Prior to analysis, the samples were gently ground using a mortar and pestle to obtain a fine powder. The ground sample was adjusted into a cavity of the sample holder and the surface of the sample was smoothed using a cover glass.
A silicon powder internal standard was used to calibrate the peak positions and to eliminate an effect of the sample preparation. […] The internal standard powder can be mixed with a sample The PXRD diffractogram is then acquired and the current position of the aforementioned internal standard diffraction peak is determined. The difference between the current position of the diffraction and its nominal value of 28.44 degrees 2-theta is calculated. The current positions of all relevant sample peaks are then corrected using the above difference to obtain the true positions of the sample diffractions. The confidence interval for the peak positions was determined to be ±0.1 degrees 2-theta.
Scan range: 3-40 degrees 2-theta; Scan mode: continuous; Step size: 0.0167 degrees; Time per step: 42 s; Sample spin: 16 rpm; Sample holder: zero background silicon plate.
About 100 mg of a sample was placed to a cell with controlled relative humidity. The samples were exposed to 60%, 80% and 100% relative humidity, at a temperature of about room temperature, for a period of about two days. XRPD analysis and water content by Karl-Fischer coulometric titration were carried out before and after the exposure to the defined relative humidity.
Water was determined by KF Oven method (832 KF Thermoprep connected to 831 KF Coulometer). Water from the sample (50 mg of cabazitaxel) was released by nitrogen stream at 130° C. Extraction time was 10 minutes.

[2] = Polymorphic stability on storage (conversion measured by PXRD); assay type: physicochemical
Protocol: As used herein, and unless indicated otherwise, the term “polymorphic stability” in relation to the crystalline forms of Cabazitaxel means that there is less than 20%, 10%, 5%, 1%, 0.5% or 0.1% conversion of crystalline Cabazitaxel to any other solid state form of Cabazitaxel under the specified conditions, as measured by PXRD. In some embodiments, the conversion is 0.5%-20%, 0.5%-10% or 0.5%-5% or 0.5%-1% or 0.1%-1%, or 0.1%-0.5%.
as §1

[3] = 60% RH, about room temperature, about two days
[4] = 80% RH, about room temperature, about two days
[5] = 100% RH, about room temperature, about two days

Form (crystalline structure determined by PXRD) [1, 3]	% water content [1, 3] [%]	Form (crystalline structure determined by PXRD) [1, 4]	% water content [1, 4] [%]	Form (crystalline structure determined by PXRD) [1, 5]	% water content [1, 5] [%]	Form (crystalline structure determined by PXRD) ([1]; Atmospheric RH)	% water content ([1]; Atmospheric RH) [%]	Hygroscopicity (in words) ([1]; about room temperature)	Period of polymorphic stability ([2]; about 25° C. and 60% relative humidity)	Period of polymorphic stability ([2]; about 40° C. and 75% RH)	SMILES	Conversion to other forms of Cabazitaxel (in words) ([1]; about room temperature)
Form V	0.21	Form V	0.30	Form V	0.68	Form V	0.08	low—hygroscopicity form	–	–	CO[C@H]1C(=O)[C@]2(C)[C@@H](OC)C[C@H]3OC[C@@]3(OC(C)=O)[C@H]2[C@H](OC(=O)c2ccccc2)[C@]2(O)C[C@H](OC(=O)[C@H](O)[C@@H](NC(=O)OC(C)(C)C)c3ccccc3)C(C)=C1C2(C)C [Form V, Cabazitaxel]	does not convert to any other forms of Cabazitaxel
Form IV	0.07	Form IV	0.09	Form IV	0.09	Form IV	0.01	low-hygroscopicity form	–	–	CO[C@H]1C(=O)[C@]2(C)[C@@H](OC)C[C@H]3OC[C@@]3(OC(C)=O)[C@H]2[C@H](OC(=O)c2ccccc2)[C@]2(O)C[C@H](OC(=O)[C@H](O)[C@@H](NC(=O)OC(C)(C)C)c3ccccc3)C(C)=C1C2(C)C [Form IV, Cabazitaxel]	does not convert to any other forms of Cabazitaxel

Further lines, the molecule ahead of its results:

SMILES	Form (crystalline structure determined by PXRD) [1, 3]	% water content [1, 3] [%]	Form (crystalline structure determined by PXRD) [1, 4]	% water content [1, 4] [%]	Form (crystalline structure determined by PXRD) [1, 5]	% water content [1, 5] [%]	Form (crystalline structure determined by PXRD) ([1]; Atmospheric RH)	% water content ([1]; Atmospheric RH) [%]	Hygroscopicity (in words) ([1]; about room temperature)	Period of polymorphic stability ([2]; about 25° C. and 60% relative humidity)	Period of polymorphic stability ([2]; about 40° C. and 75% RH)	Conversion to other forms of Cabazitaxel (in words) ([1]; about room temperature)
CO[C@H]1C(=O)[C@]2(C)[C@@H](OC)C[C@H]3OC[C@@]3(OC(C)=O)[C@H]2[C@H](OC(=O)c2ccccc2)[C@]2(O)C[C@H](OC(=O)[C@H](O)[C@@H](NC(=O)OC(C)(C)C)c3ccccc3)C(C)=C1C2(C)C [Form III, Cabazitaxel]	Form III	0.14	Form III	0.23	Form III	0.19	Form III	0.05	low-hygroscopicity form	at least 6 months	at least 6 months	does not convert to any other solid state forms of Cabazitaxel
CO[C@H]1C(=O)[C@]2(C)[C@@H](OC)C[C@H]3OC[C@@]3(OC(C)=O)[C@H]2[C@H](OC(=O)c2ccccc2)[C@]2(O)C[C@H](OC(=O)[C@H](O)[C@@H](NC(=O)OC(C)(C)C)c3ccccc3)C(C)=C1C2(C)C [Form I, Cabazitaxel]	Form I	0.13	Form I	0.14	Form I	0.14	Form I	0.05	low-hygroscopicity form	–	–	does not convert to any other forms of Cabazitaxel
CO[C@H]1C(=O)[C@]2(C)[C@@H](OC)C[C@H]3OC[C@@]3(OC(C)=O)[C@H]2[C@H](OC(=O)c2ccccc2)[C@]2(O)C[C@H](OC(=O)[C@H](O)[C@@H](NC(=O)OC(C)(C)C)c3ccccc3)C(C)=C1C2(C)C [Form II, Cabazitaxel]	Form II	0.07	Form II	0.09	Form II	0.11	Form II	0.02	low-hygroscopicity form	–	–	does not convert to any other forms of Cabazitaxel
